Measurements as given in ChEMBL document CHEMBL5291721, “A preclinical secondary pharmacology resource illuminates target-adverse drug reaction associations of marketed drugs” (Nat Commun, 2023).

Assays:
Progesterone receptor = molecular target: T1, Progesterone receptor (Homo sapiens, UniProt P06401)
T1 sequence (P06401 whole entry): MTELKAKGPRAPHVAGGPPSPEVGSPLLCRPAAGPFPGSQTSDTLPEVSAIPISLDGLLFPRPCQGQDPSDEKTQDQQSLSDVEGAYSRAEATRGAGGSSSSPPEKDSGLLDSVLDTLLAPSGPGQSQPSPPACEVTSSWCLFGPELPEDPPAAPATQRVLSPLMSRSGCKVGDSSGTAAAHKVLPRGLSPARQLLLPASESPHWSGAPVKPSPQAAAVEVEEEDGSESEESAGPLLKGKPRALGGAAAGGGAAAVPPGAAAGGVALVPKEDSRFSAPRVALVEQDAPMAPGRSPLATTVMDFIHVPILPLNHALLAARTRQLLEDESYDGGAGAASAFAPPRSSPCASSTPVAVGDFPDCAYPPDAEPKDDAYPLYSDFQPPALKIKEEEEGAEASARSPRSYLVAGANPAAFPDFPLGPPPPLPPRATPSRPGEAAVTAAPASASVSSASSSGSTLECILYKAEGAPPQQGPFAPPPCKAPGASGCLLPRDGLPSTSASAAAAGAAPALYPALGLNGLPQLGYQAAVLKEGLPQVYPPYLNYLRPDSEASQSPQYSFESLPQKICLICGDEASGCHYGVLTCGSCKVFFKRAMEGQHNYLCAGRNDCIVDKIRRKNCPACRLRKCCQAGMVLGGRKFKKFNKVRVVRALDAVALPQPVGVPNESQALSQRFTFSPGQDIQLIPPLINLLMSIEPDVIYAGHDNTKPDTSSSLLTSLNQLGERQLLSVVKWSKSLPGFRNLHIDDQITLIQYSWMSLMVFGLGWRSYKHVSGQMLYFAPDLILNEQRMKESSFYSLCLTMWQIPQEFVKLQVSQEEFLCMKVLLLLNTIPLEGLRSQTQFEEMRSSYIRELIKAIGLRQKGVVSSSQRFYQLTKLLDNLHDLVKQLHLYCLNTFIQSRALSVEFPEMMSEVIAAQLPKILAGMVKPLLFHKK

[1] = molecular target: 5-hydroxytryptamine receptor 2A (Homo sapiens, UniProt P28223)
[2] = molecular target: T2, Alpha-2A adrenergic receptor (Homo sapiens, UniProt P08913)
T2 sequence (P08913 whole entry): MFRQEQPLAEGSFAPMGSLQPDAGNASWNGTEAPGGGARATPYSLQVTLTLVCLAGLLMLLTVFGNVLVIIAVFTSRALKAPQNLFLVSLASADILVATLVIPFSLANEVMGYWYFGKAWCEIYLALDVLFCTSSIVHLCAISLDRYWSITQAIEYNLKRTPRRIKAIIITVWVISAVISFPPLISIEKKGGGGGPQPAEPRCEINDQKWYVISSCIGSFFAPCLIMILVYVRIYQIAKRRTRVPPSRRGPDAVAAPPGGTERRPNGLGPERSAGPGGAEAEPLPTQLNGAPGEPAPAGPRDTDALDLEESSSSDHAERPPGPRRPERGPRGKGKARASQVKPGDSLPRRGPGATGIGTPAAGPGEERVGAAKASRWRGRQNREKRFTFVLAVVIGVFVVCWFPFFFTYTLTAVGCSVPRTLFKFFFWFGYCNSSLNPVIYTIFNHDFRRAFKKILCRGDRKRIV

[3] = molecular target: T3, Gastric inhibitory polypeptide receptor (Homo sapiens, UniProt P48546)
T3 sequence (P48546 whole entry): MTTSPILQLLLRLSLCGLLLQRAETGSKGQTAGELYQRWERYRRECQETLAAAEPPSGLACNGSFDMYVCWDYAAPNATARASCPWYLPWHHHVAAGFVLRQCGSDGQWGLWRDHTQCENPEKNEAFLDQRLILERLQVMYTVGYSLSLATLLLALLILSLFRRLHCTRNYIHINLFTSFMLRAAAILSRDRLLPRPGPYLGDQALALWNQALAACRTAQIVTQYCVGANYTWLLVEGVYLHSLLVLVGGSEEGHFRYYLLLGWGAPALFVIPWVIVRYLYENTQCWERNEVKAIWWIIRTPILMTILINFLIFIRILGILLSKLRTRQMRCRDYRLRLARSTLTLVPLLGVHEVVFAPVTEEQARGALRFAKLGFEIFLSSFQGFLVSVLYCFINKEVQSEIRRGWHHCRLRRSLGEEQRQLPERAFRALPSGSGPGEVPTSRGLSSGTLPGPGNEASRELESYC

Histamine H2 receptor = Histamine H2 receptor (Homo sapiens, UniProt P25021)
D(4) dopamine receptor = molecular target: T4, D(4) dopamine receptor (Homo sapiens, UniProt P21917)
T4 sequence (P21917 whole entry): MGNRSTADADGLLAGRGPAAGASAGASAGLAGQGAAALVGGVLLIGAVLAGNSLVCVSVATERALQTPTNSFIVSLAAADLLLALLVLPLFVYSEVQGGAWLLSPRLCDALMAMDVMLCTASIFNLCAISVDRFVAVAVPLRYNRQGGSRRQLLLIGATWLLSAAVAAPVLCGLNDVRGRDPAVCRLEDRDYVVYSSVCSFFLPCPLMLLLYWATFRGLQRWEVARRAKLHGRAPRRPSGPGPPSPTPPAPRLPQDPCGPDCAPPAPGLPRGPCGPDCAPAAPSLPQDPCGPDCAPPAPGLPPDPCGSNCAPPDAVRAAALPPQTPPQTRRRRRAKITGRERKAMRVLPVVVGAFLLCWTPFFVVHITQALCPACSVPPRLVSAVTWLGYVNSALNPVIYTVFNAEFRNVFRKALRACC

[4] = molecular target: 5-hydroxytryptamine receptor 7 (Homo sapiens, UniProt P34969)
Cannabinoid receptor 1 = Cannabinoid receptor 1 (Homo sapiens, UniProt P21554); type: functional
[5] = molecular target: T5, Alpha-1A adrenergic receptor (Homo sapiens, UniProt P35348)
T5 sequence (P35348 whole entry): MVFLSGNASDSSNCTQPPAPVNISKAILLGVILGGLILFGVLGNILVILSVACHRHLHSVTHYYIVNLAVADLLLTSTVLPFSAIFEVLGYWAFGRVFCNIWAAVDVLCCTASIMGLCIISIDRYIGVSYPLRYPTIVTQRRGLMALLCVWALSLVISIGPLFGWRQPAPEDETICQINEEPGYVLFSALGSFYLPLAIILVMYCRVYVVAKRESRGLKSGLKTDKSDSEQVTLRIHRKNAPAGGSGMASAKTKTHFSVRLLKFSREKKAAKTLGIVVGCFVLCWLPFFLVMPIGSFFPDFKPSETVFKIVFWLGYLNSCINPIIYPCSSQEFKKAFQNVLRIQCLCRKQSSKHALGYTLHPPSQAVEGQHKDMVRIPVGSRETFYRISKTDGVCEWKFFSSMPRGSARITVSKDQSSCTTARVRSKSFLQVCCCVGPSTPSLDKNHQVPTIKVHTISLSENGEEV
Also: assay procedure not described here.

Sequence of 5-hydroxytryptamine receptor 2A (P28223 whole entry): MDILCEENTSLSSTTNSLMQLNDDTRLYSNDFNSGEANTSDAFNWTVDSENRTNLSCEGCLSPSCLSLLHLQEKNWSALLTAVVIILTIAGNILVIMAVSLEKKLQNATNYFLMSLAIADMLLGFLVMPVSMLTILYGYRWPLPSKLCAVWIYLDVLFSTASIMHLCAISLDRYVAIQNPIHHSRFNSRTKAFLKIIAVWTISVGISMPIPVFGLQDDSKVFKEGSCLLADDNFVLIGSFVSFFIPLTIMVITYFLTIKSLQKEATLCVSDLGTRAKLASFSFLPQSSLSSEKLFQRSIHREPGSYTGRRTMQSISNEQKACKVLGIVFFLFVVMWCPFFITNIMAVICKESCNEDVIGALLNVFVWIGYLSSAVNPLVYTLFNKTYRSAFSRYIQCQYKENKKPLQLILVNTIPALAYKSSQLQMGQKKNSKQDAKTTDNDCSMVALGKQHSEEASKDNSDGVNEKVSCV
Sequence of 5-hydroxytryptamine receptor 7 (P34969 whole entry): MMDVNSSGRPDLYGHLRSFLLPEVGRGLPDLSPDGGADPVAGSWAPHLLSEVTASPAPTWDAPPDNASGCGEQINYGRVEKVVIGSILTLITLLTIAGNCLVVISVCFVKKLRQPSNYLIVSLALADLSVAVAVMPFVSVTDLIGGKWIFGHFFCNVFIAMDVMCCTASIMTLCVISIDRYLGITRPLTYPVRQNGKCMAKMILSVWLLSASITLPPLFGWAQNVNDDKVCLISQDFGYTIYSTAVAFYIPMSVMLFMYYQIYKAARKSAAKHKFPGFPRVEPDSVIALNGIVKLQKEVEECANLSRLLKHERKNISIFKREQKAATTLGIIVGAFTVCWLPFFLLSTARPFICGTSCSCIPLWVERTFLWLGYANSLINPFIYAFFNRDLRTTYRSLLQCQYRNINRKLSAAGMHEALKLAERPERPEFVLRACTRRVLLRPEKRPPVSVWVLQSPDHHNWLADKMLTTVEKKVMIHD
Sequence of Histamine H2 receptor (P25021 whole entry): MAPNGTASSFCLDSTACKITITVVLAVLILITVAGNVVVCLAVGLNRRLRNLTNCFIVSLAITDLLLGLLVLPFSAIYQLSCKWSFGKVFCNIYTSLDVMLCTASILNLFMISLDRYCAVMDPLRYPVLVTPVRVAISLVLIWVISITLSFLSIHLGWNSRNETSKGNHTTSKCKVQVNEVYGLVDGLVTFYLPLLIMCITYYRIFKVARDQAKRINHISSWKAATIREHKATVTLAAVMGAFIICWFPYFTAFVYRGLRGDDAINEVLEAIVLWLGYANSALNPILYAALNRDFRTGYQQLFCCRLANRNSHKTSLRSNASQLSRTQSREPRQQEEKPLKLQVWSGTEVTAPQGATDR
Sequence of Cannabinoid receptor 1 (P21554 whole entry): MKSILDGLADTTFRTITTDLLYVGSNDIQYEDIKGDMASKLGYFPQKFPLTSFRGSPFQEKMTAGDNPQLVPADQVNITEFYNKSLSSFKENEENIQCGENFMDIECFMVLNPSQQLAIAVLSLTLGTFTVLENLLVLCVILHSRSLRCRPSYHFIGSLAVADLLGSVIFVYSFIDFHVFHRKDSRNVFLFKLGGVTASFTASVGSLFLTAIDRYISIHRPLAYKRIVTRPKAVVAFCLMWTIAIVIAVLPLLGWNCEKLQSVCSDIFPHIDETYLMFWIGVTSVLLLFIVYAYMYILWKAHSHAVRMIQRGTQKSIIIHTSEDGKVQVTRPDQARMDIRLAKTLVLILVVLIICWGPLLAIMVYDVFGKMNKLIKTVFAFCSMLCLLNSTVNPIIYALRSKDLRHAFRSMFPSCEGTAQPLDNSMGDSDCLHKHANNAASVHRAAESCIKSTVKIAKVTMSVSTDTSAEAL

SMILES: O=C(O)c1cccc(-c2noc(-c3ccccc3F)n2)c1
- AC50 (Progesterone receptor): > 30 µM
- AC50 [1]: > 10 µM

SMILES: CC(C)(N)Cc1ccc(Cl)cc1 [CHLORPHENTERMINE]
- AC50 [2]: > 10 µM
- AC50 (Progesterone receptor): > 30 µM
- AC50 [3]: > 30 µM
- AC50 (Histamine H2 receptor): > 10 µM
- AC50 [1]: 9.06 µM

SMILES: O=C(Nc1ccccc1)OCC(CN1CCCCC1)OC(=O)Nc1ccccc1 (stereo not drawn) [DIPERODON]
- AC50 (D(4) dopamine receptor): 5.2 µM
- AC50 [4]: > 10 µM
- AC50 [2]: > 10 µM
- AC50 (Progesterone receptor): > 30 µM
- AC50 (Cannabinoid receptor 1): > 10 µM
- AC50 [5]: > 10 µM
- AC50 [3]: > 30 µM
- AC50 (Histamine H2 receptor): > 10 µM
- AC50 [1]: > 10 µM

SMILES: C=C1C[C@@H]2[C@H](CC[C@]3(C)C(=O)CC[C@@H]23)[C@@]2(C)C=CC(=O)C=C12 [EXEMESTANE]
- AC50 (Progesterone receptor): 29.3 µM
- AC50 [3]: > 30 µM
- AC50 [1]: 6.96 µM

SMILES: CC(=O)N(CC(O)CO)c1c(I)c(C(=O)NCC(O)CO)c(I)c(C(=O)NCC(O)CO)c1I (stereo not drawn) [IOHEXOL]
- AC50 (Progesterone receptor): > 30 µM
- AC50 [1]: > 10 µM

SMILES: CN(C)CCCN1c2ccccc2Sc2ccccc21 [PROMAZINE]
- AC50 (D(4) dopamine receptor): 0.551 µM
- AC50 [4]: 2.16 µM
- AC50 [2]: 5 µM
- AC50 (Progesterone receptor): > 30 µM
- AC50 (Cannabinoid receptor 1): > 10 µM
- AC50 [5]: 0.0138 µM
- AC50 [3]: > 30 µM
- AC50 (Histamine H2 receptor): 0.111 µM

SMILES: O=P(O)(O)C(O)(Cc1cccnc1)P(=O)(O)O [RISEDRONIC ACID]
- AC50 (D(4) dopamine receptor): > 10 µM
- AC50 [4]: > 10 µM
- AC50 [2]: > 10 µM
- AC50 (Progesterone receptor): > 30 µM
- AC50 (Cannabinoid receptor 1): > 10 µM
- AC50 [5]: > 10 µM
- AC50 [3]: > 30 µM
- AC50 (Histamine H2 receptor): > 10 µM

SMILES: O=C1CCC(N2C(=O)c3ccccc3C2=O)C(=O)N1 (stereo not drawn) [THALIDOMIDE]
- AC50 (D(4) dopamine receptor): > 10 µM
- AC50 [2]: > 10 µM
- AC50 (Progesterone receptor): > 30 µM
- AC50 [5]: > 10 µM
- AC50 [3]: > 30 µM
- AC50 (Histamine H2 receptor): > 10 µM
